Values after ≈ are worked out from the molar mass of the structure shown.
How the values were obtained:
[1] = test system: Pseudomonas aeruginosa (Pae, PAWT, ATCC #27853); assay: MIC against Pseudomonas aeruginosa reference strain PAWT; type: cell-based; details: Pseudomonas aeruginosa wild type PAWT
Text: (§1) For evaluation of efficacy, we assembled panels of representative gram-negative pathogens, including Pseudomonas aeruginosa (Pae, PAWT, ATCC #27853), Klebsiella pneumoniae (Kpn, KPWT, ATCC #700603), Acinetobacter baumannii (Aba, ABWT, ATCC #BAA-747) and Escherichia coli (Eco, ECWT, ATCC #25922). These reference strains are useful indicator organisms to characterize compound activity against bacteria from a pathogenic genus in the absence of multiple resistance mechanisms. Two strains (PAWT and ECWT) are reference strains cited within the Clinical and Laboratory Standards Institute (CLSI) Standards for susceptibility testing by Minimum Inhibitory Concentration (MIC) (SXPS2) and are well suited for quality control. ABWT and ECWT are widely susceptible to aminoglycoside antibiotics, whereas PAWT and KPWT harbor a single aminoglycoside-modifying enzyme (AGME) that targets 4,6-substituted-2-deoxystreptamine AGs. […]

[2] = test system: Klebsiella pneumoniae (Kpn, KPWT, ATCC #700603); assay: MIC against Klebsiella pneumoniae reference strain KPWT; type: cell-based; details: for MIC KPWT: Klebsiella pneumonia KPWT, Table 5 (unit not given), in µg/mL
Text: as §1, with “These reference strains are useful indicator organisms to characterize compound activity against bacteria from a pathogenic genus in the absence of multiple resistance mechanisms.” left out

[3] = test system: Acinetobacter baumannii (Aba, ABWT, ATCC #BAA-747); assay: MIC against Acinetobacter baumannii reference strain ABWT; type: cell-based
Text: as §1

[4] = test system: Escherichia coli (Eco, ECWT, ATCC #25922); assay: MIC against Escherichia coli reference strain ECWT; type: cell-based; details: ATCC25922
Text: For evaluation of efficacy, we assembled panels of representative gram-negative pathogens, including Pseudomonas aeruginosa (Pae, PAWT, ATCC #27853), Klebsiella pneumoniae (Kpn, KPWT, ATCC #700603), Acinetobacter baumannii (Aba, ABWT, ATCC #BAA-747) and Escherichia coli (Eco, ECWT, ATCC #25922). These reference strains are useful indicator organisms to characterize compound activity against bacteria from a pathogenic genus in the absence of multiple resistance mechanisms. Two strains (PAWT and ECWT) are reference strains cited within the Clinical and Laboratory Standards Institute (CLSI) Standards for susceptibility testing by Minimum Inhibitory Concentration (MIC) (SXPS2) and are well suited for quality control. ABWT and ECWT are widely susceptible to aminoglycoside antibiotics, whereas PAWT and KPWT harbor a single aminoglycoside-modifying enzyme (AGME) that targets 4,6-substituted-2-deoxystreptamine AGs.

[5] = test system: Pseudomonas aeruginosa PR1 (clinical isolate with intermediate aminoglycoside resistance); assay: MIC against Pseudomonas aeruginosa clinical isolate PR1; type: cell-based; details: Pseudomonas aeruginosa resistant strain PR1
Text: (§2) Pseudomonas aeruginosa is a prominent nosocomial pathogen. In addition to intrinsic antibiotic resistance to several antibiotics, Pseudomonas has acquired multiple additional mechanisms of resistance. As a result, therapeutic options for the treatment of infections caused by Pseudomonas aeruginosa are limited. We acquired clinical isolates of Pseudomonas aeruginosa (Micromyx LLC, Kalamazoo, Mich.), and used this panel to test compounds for Pseudomonicidal activity. […] For each strain and antibiotic, the mechanism(s) of resistance was inferred from the resistance profile. The presence of specific AGMEs was confirmed by colony PCR.

[6] = test system: Pseudomonas aeruginosa PR2 (clinical isolate with intermediate aminoglycoside resistance); assay: MIC against Pseudomonas aeruginosa clinical isolate PR2; type: cell-based; details: Pseudomonas aeruginosa resistant strain PR2
Text: as §2

[7] = test system: Pseudomonas aeruginosa PR3 (high-level, efflux-mediated, pan-aminoglycoside resistance); assay: MIC against Pseudomonas aeruginosa clinical isolate PR3; type: cell-based; details: for MIC PR3: Pseudomonas aeruginosa resistant strain PR3
Text: as §2

[8] = test system: more than fifty resistant contemporary clinical isolates of Pseudomonas aeruginosa; assay: MIC90 against panel of resistant clinical isolates of Pseudomonas aeruginosa; type: cell-based
Text: To assess this, a panel of more than fifty resistant contemporary clinical isolates of Pseudomonas aeruginosa were obtained from multiple sources including JMI Laboratories (North Liberty, Iowa), Pfizer (Groton, Conn.), Micromyx (Kalamazoo, Mich.), Dr. J. Chow (Wayne State University). Strains were characterized for resistance to a wide variety of classes of antibiotics including aminoglycosides, β-lactams and fluoroquinolones. […] This reflects the difficulty in treating clinical Pseudomonas aeruginosa infections. […] Using this stringent panel, we tested a subset of compounds of the invention (Table 4).

[9] = test system: fifty resistant contemporary clinical isolates of Klebsiella pneumoniae; assay: MIC90 against panel of resistant clinical isolates of Klebsiella pneumoniae; type: cell-based; details: for MIC90 Klebsiella pneumonia: stringent panel of resistant clinical isolates, Table 5
Text: Using this stringent Klebsiella pneumoniae panel, we tested a subset of compounds of the invention.

P. aeruginosa 6294 MLP-3 = assay: Rat neutropenic thigh model; type: in vivo
Description: The compound identified as SXP 2523 was selected for further testing in vivo. Twenty male Sprague Dawley rats were pre-treated with cyclophosphamide to render them neutropenic on day −4 and day −1 with 100 mg/kg and 75 mg/kg respectively. Rats were infected with P. aeruginosa 6294 MLP-3, via injection into the right thigh muscle of 0.1 mL per rat. Two hours post infection rats were treated intravenously with either SXP-2523 or amikacin in a total dose of 10 or 60 mg/kg, respectively. The test article and control agent were delivered at 2, 4, and 6 hours post infection. Five rats were treated with each drug concentration. One group of five rats was euthanized at initiation of treatment and thigh CFUs were processed (T=Rx). Twenty-four hours post infection rats were euthanized by CO2 inhalation. The right thigh muscles of the rats were aseptically removed, weighed, homogenized, serially diluted, and plated on MacConkey medium. The plates were incubated overnight at 37° C. in 5% CO2. CFU per gram of thigh was calculated by enumerating the plated colonies then adjusting for serial dilutions and the weight of the thigh. The following table 7 summarizes the results Table 6: […]

[10] = test system: resistant strain of P. aeruginosa (P. aeruginosa 6294 MLP-3); assay: Rat neutropenic thigh model against resistant P. aeruginosa; type: in vivo; details: resistant P. aeruginosa
Description: The compound identified as SXP 2523 was further tested in vivo against a resistant strain of P. aeruginosa. Twenty male Sprague Dawley rats were rendered neutropenic by treatment with cyclophosphamide on day −4 and day −1 with 100 mg/kg and 75 mg/kg, respectively. Rats were infected with P. aeruginosa 6294 MLP-3, via injection into the right thigh muscle of 0.1 mL per rat. Two hours post infection rats were treated intravenously with either SXP-2523 or amikacin in a total dose of 10 or 60 mg/kg, respectively. The test article and control agent were delivered at 2, 4, and 6 hours post infection. Five rats were treated with each drug concentration. One group of five rats were euthanized at initiation of treatment and thigh CFUs were determined (T=Rx). Twenty-four hours post infection; rats were euthanized by CO2 inhalation. The right thigh muscles of the rats were aseptically removed, weighed, homogenized, serially diluted, and plated on BHI medium. The plates were incubated overnight at 37° C. in 5% CO2. CFU per gram of thigh was calculated by enumerating the plated colonies then adjusting for serial dilutions and the weight of the thigh.

[11] = test system: Klebsiella pneumoniae screening panel KPWT, KR1, KR2, KR3; assay: Klebsiella pneumoniae screening panel (KPWT, KR1, KR2, KR3), reference AGs; type: cell-based
Text: (§3) Klebsiella pneumoniae (Kpn) and Escherichia coli (Eco) are gram-negative (like Pae), enteric pathogens with increasing clinical relevance. Many clinical isolates of Kpn and Eco harbor extended-spectrum beta-lactamases and are no longer sensitive to most beta-lactam antibiotics. We acquired clinical isolates of Klebsiella pneumoniae and Escherichia coli (Micromyx LLC, Kalamazoo, Mich.) and used this panel to test compounds for anti-enteric activity.

[12] = test system: Klebsiella pneumoniae KR1 (clinical isolate with intermediate aminoglycoside resistance); assay: MIC against Klebsiella pneumoniae clinical isolate KR1; type: cell-based; details: Klebsiella pneumonia KR1; in µg/mL
Text: as §3

[13] = test system: Klebsiella pneumoniae KR2 (clinical isolate with intermediate aminoglycoside resistance); assay: MIC against Klebsiella pneumoniae clinical isolate KR2; type: cell-based; details: Klebsiella pneumonia KR2
Text: as §3

[14] = test system: Klebsiella pneumoniae KR3 (clinical isolate possessing high-level aminoglycoside resistance); assay: MIC against Klebsiella pneumoniae clinical isolate KR3; type: cell-based; details: Klebsiella pneumonia KR3; in µg/mL
Text: as §3

panel of E. coli strains = assay: MIC90 against a panel of E. coli strains; type: cell-based; details: in µg/mL
[15] = test system: Acinetobacter baumannii AB1; assay: MIC against Acinetobacter baumannii clinical isolate AB1; type: cell-based
Text: (§4) Acinetobacter baumannii is another clinically important and very challenging gram negative pathogen. Members of the Acinetobacter genus, including baumannii, have a remarkable ability to upregulate and acquire resistance determinants. Coupled with its ability to survive for prolonged periods in a hospital environment, A. baumannii is an emerging threat for healthcare institutions globally. We acquired clinical isolates of Acinetobacter baumannii and used this panel to test compounds for anti-Acinetobacter activity. We first tested reference AGs against our panel of Aba strains.

[16] = test system: Acinetobacter baumannii AB2; assay: MIC against Acinetobacter baumannii clinical isolate AB2; type: cell-based
Text: as §4

[17] = test system: Acinetobacter baumannii AB3; assay: MIC against Acinetobacter baumannii clinical isolate AB3; type: cell-based
Text: as §4

[18] = test system: fifty resistant contemporary clinical isolates of Acinetobacter baumannii; assay: MIC90 against panel of resistant clinical isolates of Acinetobacter baumannii; type: cell-based
Text: As in the case of Pseudomonas aeruginosa and Klebsiella pneumoniae, we considered whether the SAR observed against select Acinetobacter baumannii strains 1, 2 or 3 was indicative of general potency. […] Using this stringent Acinetobacter baumannii panel, we tested a subset of compounds of the invention.

[19] = Log CFU/thigh, total dose 10 mg/kg SXP-2523 or 60 mg/kg amikacin iv
[20] = neutropenic male Sprague Dawley rats, iv at 2, 4, 6 h post infection, total dose 10 mg/kg SXP-2523 or 60 mg/kg amikacin, 24 h post infection

Structure (SMILES) | MIC PAWT [1] | MIC KPWT [2] | MIC ABWT [3] | MIC PR1 [5] | MIC PR2 [6] | MIC PR3 [7] | MIC90 Pseudomonas aeruginosa [8] | MIC KR1 [12] | MIC KR2 [13] | MIC KR3 [14] | MIC90 Klebsiella pneumonia [9] | MIC90 E. coli (panel of E. coli strains) | MIC AB1 [15] | MIC AB2 [16] | MIC AB3 [17] | MIC90 Acinetobacter baumannii [18] | other results
NCC[C@H](O)C(=O)N[C@@H]1C[C@H](N)[C@@H](O[C@H]2O[C@H](CN)[C@@H](O)[C@H](O)[C@H]2O)[C@H](O)[C@H]1O[C@H]1O[C@H](CO)[C@@H](O)[C@H](N)[C@H]1O [amikacin] | – | – | – | – | – | – | – | – | – | – | – | – | – | – | – | – | MIC ([1]; ATCC27853): 1 to 2 µg/mL (≈ 1.71 to 3.42 µM); MIC ([2]; ATCC700603, Klebsiella pneumoniae KPWT, Table 2): 1 µg/mL (≈ 1.71 µM); MIC ([3]; ATCCBAA747): 1 µg/mL (≈ 1.71 µM); MIC [4]: 2 to 4 µg/mL (≈ 3.42 to 6.83 µM); MIC [5]: 8 µg/mL (≈ 13.7 µM); MIC [6]: 8 to 16 µg/mL (≈ 13.7 to 27.3 µM); MIC ([7]; Pseudomonas aeruginosa, read-out: MIC PR3): 64 µg/mL (≈ 109 µM); MIC90 ([8]; Pseudomonas aeruginosa): ≥ 64 µg/mL; MIC90 ([9]; Klebsiella pneumoniae, fifty resistant contemporary clinical isolates, reference antibiotics): ≥ 64 µg/mL; Change from 24 hr. control (P. aeruginosa 6294 MLP-3; [19]): −1.49; Change from T = Rx controls (P. aeruginosa 6294 MLP-3; [19]): 1.59; Log CFU/thigh (P. aeruginosa 6294 MLP-3; [20]): 5.77 Log CFU/thigh; Change from 24 hr. control [10, 19]: −2.73; Change from T = Rx controls [10, 19]: 0.43; Log CFU/thigh [10, 20]: 3.92 Log CFU/thigh; potency against Klebsiella pneumoniae test panel [11]: potency against 3 of 4 strains tested
NCCC(O)C(=O)NC1CC(N)C(OC2OC(CN)C(O)CC2N)C(F)C1OC1OC(CNC2CNC2)C(O)C(N)C1O (stereo not drawn) [SXP 2554] | 0.25 µg/mL (≈ 0.4 µM) | 0.125 | 0.25 µg/mL (≈ 0.4 µM) | 2 µg/mL (≈ 3.2 µM) | 0.5 µg/mL (≈ 0.8 µM) | 8 µg/mL (≈ 12.8 µM) | 4 µg/mL (≈ 6.4 µM) | 0.25 | 0.125 | 0.25-0.5 | 0.5 µg/mL (≈ 0.8 µM) | 2 | 0.5 µg/mL (≈ 0.8 µM) | 0.25 to 0.5 µg/mL | 2 to 4 µg/mL | 2 µg/mL (≈ 3.2 µM) | –
NCCC(O)C(=O)NC1CC(N)C(OC2OC(CN)C(O)CC2N)C(F)C1OC1OC(CNCC(O)CN)C(O)C(N)C1O (stereo not drawn) [SXP 2524] | 0.25 µg/mL (≈ 0.389 µM) | 0.5 | 0.5 µg/mL (≈ 0.778 µM) | 4 µg/mL (≈ 6.22 µM) | 0.5 µg/mL (≈ 0.778 µM) | 8 µg/mL (≈ 12.4 µM) | 4 µg/mL (≈ 6.22 µM) | 0.5-1 | 0.5 | 0.5-1 | 1 µg/mL (≈ 1.56 µM) | 2-4 | 2 µg/mL (≈ 3.11 µM) | 1 µg/mL (≈ 1.56 µM) | 8 µg/mL (≈ 12.4 µM) | 2 µg/mL (≈ 3.11 µM) | –

Source: patent US8586552B2, “4,6-substituted 2,5-dideoxystreptamine aminoglycoside antibiotics” (SelectX Pharmaceuticals, Inc., priority 2012, dated 2013)
